Results on 48 compounds are retold here after patent US6372779B1, “Anti-inflammatory compounds” (Ortho Pharmaceutical Corporation, priority 1997, dated 2002).

The test system of data set [1] is oxazolone-induced ear swelling in CD-1 mice. Description: mouse oxazolone-induced contact hypersensitization (MOCH), ear swelling. Conditions: topical to ear, 1 mg, mouse, 24 hours after oxazolone challenge; read-out: Oxazolone Ear Swelling (MOCH) % inhibition vs. Vehicle at 1 mg. Format: in vivo. Here is the method:
Several triphenylpropanamide compounds of this invention, having varying affinities for the human glucocorticoid receptor, were tested for topical antiinflammatory activity in mouse ear inflammation models. […] Compounds having receptor affinities closer to hydrocortisone were as nearly active as hydrocortisone in suppressing mouse oxazolone-induced contact hypersensitization (MOCH) and phorbol ester-induced ear edema. The in vivo studies of this example were conducted as follows.
In determining the MOCH using the compounds of this invention, albino male CD-1 mice, 7-9 weeks old were induced on the shaved abdomen with 50 μl of 3% oxazolone in acetone/corn oil (Day 0). On Day 5, a 20 μl volume of 2% oxazolone in acetone was applied to the dorsal left ear of the mouse. Compounds (made in ethanol/propylene glycol, 70:30) were applied to the left ear in 20 μl volume, one hour after oxazolone challenge. The right ear was not treated. The mice were sacrificed by carbon dioxide inhalation 24 hours after oxazolone challenge, the left and right ears were removed and a 7 mm biopsy was removed from each ear and weighed. The difference in biopsy weights between the right and left ears was calculated. Antiinflammatory effects of compounds were evident as an inhibition of the increase in ear weight.

Data set [2] relates to human progesterone receptor (hPR). The data set is described as follows: human progesterone receptor binding assay (displacement of 3H R5020 promegestone). Here is the method: A human progesterone receptor binding assay was performed in order to determine selectivity of the compounds, as follows. Human progesterone receptors were prepared from either insect cells (SF21) infected with baculovirus hPR A, or from a breast cancer cell line, T47D, which expresses high levels of endogenous hPR. The receptor binding reactions, with or without test compounds, were set up in 96-well microtiter plates which were previously siliconized with SIGMACOTE. The binding components, 3(H) R5020 Promegestone, a high affinity ligand for the progesterone receptors, glycerollmolybdate-containing buffer and unlabeled compounds were added to the wells using a combination of BIOMEK laboratory automation system and repeat pipettes. After overnight incubation, the samples were precipitated with polyethylene glycol and filtered through Whatman GF/F paper using a TOMTEK cell harvester. The filter mate with 96 samples were bound to a solid-phase scintillant and directly counted in the BETAPLATE counter. Only those compounds that were active in the human glucocorticoid receptor assay set forth in Example 30 were used for progesterone receptor binding to determine cross-reactivity profiles, if any. The activity of test compounds to displace 3(H) R5020 binding to hPR is expressed as percent inhibition at the two concentrations, 10^−6 and 10^−5 Molar.
(In general: Loss of bound radioactivity is the signal in a displacement assay; it reports binding, not function.)

Compound `CC(C)C(=O)NCC(c1ccccc1)C(c1ccccc1)c1ccccc1` (stereo not drawn) [Compound 61] registered a melting point of 114 to 115 °C. In addition, the inhibition in vivo at 1 mg in data set [1] is 17%.

As to `CCCCC(=O)NCC(c1ccccc1)C(c1ccccc1)c1ccccc1` (stereo not drawn) [Compound 62], the melting point lay in the range of 78 to 79 °C. The inhibition in vivo at 1 mg in data set [1] stood at 36%. `CC(C)CC(=O)NCC(c1ccccc1)C(c1ccccc1)c1ccccc1` (stereo not drawn) [Compound 63] gave a melting point of 112 to 113 °C. In data set [1], the inhibition in vivo at 1 mg came out at 3%. `CC(C)(C)C(=O)NCC(c1ccccc1)C(c1ccccc1)c1ccccc1` (stereo not drawn) [Compound 64] yielded a melting point of 143 to 144 °C. For the same compound, the inhibition in vivo at 1 mg in data set [1] was 26%. The matching figures for `CCOC(=O)CC(=O)NCC(c1ccccc1)C(c1ccccc1)c1ccccc1` (stereo not drawn) [Compound 65]: 103 to 105.5 °C and 13%. Compound `O=C(Cc1ccccc1)NCC(c1ccccc1)C1c2ccccc2-c2ccccc21` (stereo not drawn) [Compound 66] returned a melting point of 148.7 to 150.8 °C. Moreover, the inhibition in vivo at 1 mg in data set [1] came out at 20%.

With `COc1ccccc1CCC(=O)NCC(c1ccccc1)C1c2ccccc2CCc2ccccc21` (stereo not drawn) [Compound 74], the melting point is 134.3 to 136.8 °C. Further, in data set [1], the inhibition in vivo at 1 mg came out at 18%.

For the compound `O=C(Cc1cccs1)NCC(c1ccccc1)C1c2ccccc2CCc2ccccc21` (stereo not drawn) [Compound 75], the melting point was 175 to 177.5 °C. In addition, the inhibition in vivo at 1 mg in data set [1] was determined as 26%. On to `O=C(Cc1ccsc1)NCC(c1ccccc1)C1c2ccccc2CCc2ccccc21` (stereo not drawn) [Compound 76], for which the melting point lay in the range of 167.3 to 169.3 °C. Besides, the inhibition in vivo at 1 mg in data set [1] worked out at 23%.

As for `Cc1ccc(C(=O)NCC(c2ccccc2)C2c3ccccc3CCc3ccccc32)s1` (stereo not drawn) [Compound 77], the melting point lay within 172.1 to 173 °C. Also, the inhibition in vivo at 1 mg in data set [1] amounted to 41%. Turning to `COc1ccc(CC(=O)NCC2(c3ccccc3)CC2(c2ccccc2)c2ccccc2)cc1OC` (stereo not drawn) [Compound 79], the melting point lay within 131 to 133.5 °C. For the same compound, the inhibition in vivo at 1 mg in data set [1] worked out at 18%. Regarding `O=C(Cc1ccccc1Cl)NCC1(c2ccccc2)CC1(c1ccccc1)c1ccccc1` (stereo not drawn) [Compound 80, N-(2chlorophenyl)acetyl-1,2,2-triphenylcyclopropylmethylamine], the melting point is 128.5 to 130.5 °C. In addition, the inhibition in vivo at 1 mg in data set [1] came to 54%. Compound `COc1ccccc1CCC(=O)NCC1(c2ccccc2)CC1(c1ccccc1)c1ccccc1` (stereo not drawn) [Compound 81] gave a melting point of 187.5 to 189 °C. For the same compound, in data set [1], the inhibition in vivo at 1 mg came to 22%. On to `O=C(NCC1(c2ccccc2)CC1(c1ccccc1)c1ccccc1)C(c1ccccc1)c1ccccc1` (stereo not drawn) [Compound 82], for which the melting point is 166 to 169 °C. Also, in data set [1], the inhibition in vivo at 1 mg was 23%. The matching figures for `CCCC(=O)NCC1(c2ccccc2)CC1(c1ccccc1)c1ccccc1` (stereo not drawn) [Compound 83]: 149 to 150 °C and -4%. The matching figures for `CC(C)C(=O)NCC1(c2ccccc2)CC1(c1ccccc1)c1ccccc1` (stereo not drawn) [Compound 84]: 167 to 168 °C and 54%.

`CCCCC(=O)NCC1(c2ccccc2)CC1(c1ccccc1)c1ccccc1` (stereo not drawn) [Compound 87] displayed a melting point of 122 to 123 °C. In data set [1], the inhibition in vivo at 1 mg is 22%. The compound `O=C(Cc1cccs1)NCC1(c2ccccc2)CC1(c1ccccc1)c1ccccc1` (stereo not drawn) [Compound 88] showed a melting point of 135 to 137 °C. Moreover, the inhibition in vivo at 1 mg in data set [1] worked out at 29%. `O=C(Cc1ccsc1)NCC1(c2ccccc2)CC1(c1ccccc1)c1ccccc1` (stereo not drawn) [Compound 89] gave a melting point of 130 to 135 °C. In addition, in data set [1], the inhibition in vivo at 1 mg came to 16%.

Take `O=C(NCC1(c2ccccc2)CC1(c1ccccc1)c1ccccc1)c1cccs1` (stereo not drawn) [Compound 90]: the melting point is 152.5 to 155 °C. Further, in data set [1], the inhibition in vivo at 1 mg was found to be 65%. `Cc1ccc(C(=O)NCC2(c3ccccc3)CC2(c2ccccc2)c2ccccc2)s1` (stereo not drawn) [Compound 91] returned a melting point of 168 to 170.5 °C. Moreover, the inhibition in vivo at 1 mg in data set [1] came out at 13%.

For the compound `O=C(NCC1(c2ccccc2)CC1(c1ccccc1)c1ccccc1)Nc1ccccc1` (stereo not drawn) [Compound 92], the melting point was 209 to 210 °C. The inhibition in vivo at 1 mg in data set [1] was found to be 42%.

Compound `O=C(NCC1(c2ccccc2)CC1(c1ccccc1)c1ccccc1)Oc1ccccc1` (stereo not drawn) [Compound 96] registered a melting point of 146 to 147 °C. The inhibition in vivo at 1 mg in data set [1] is 52%. The compound `O=C(NCC1(c2ccccc2)CC1(c1ccccc1)c1ccccc1)Oc1ccc(Cl)cc1` (stereo not drawn) [Compound 97] returned a melting point of 171 to 172 °C. Besides, in data set [1], the inhibition in vivo at 1 mg turned out to be 50%. For the compound `O=C(Cc1cc(C(F)(F)F)cc(C(F)(F)F)c1)NCC(c1ccc(C(F)(F)F)cc1)C(c1ccccc1)c1ccccc1` (stereo not drawn) [Compound 151], the “hPR % inh 10 μM” value in data set [2] came to 41%.

With `Cc1ccc(CC(=O)NCC(c2ccc(C(F)(F)F)cc2)C(c2ccccc2)c2ccccc2)cc1` (stereo not drawn) [Compound 152], the “hPR % inh 10 μM” value in data set [2] was 41%. On to `O=C(Cc1ccc([N+](=O)[O-])cc1)NCC(c1ccc(C(F)(F)F)cc1)C(c1ccccc1)c1ccccc1` (stereo not drawn) [Compound 154], for which the “hPR % inh 10 μM” value in data set [2] stood at 34%.

As to `CN(C)c1ccc(CC(=O)NCC(c2ccc(C(F)(F)F)cc2)C(c2ccccc2)c2ccccc2)cc1` (stereo not drawn) [Compound 155], in data set [2], the “hPR % inh 10 μM” value is 29%. `O=C(Cc1ccc(-c2ccccc2)cc1)NCC(c1ccc(C(F)(F)F)cc1)C(c1ccccc1)c1ccccc1` (stereo not drawn) [Compound 156]: the “hPR % inh 10 μM” value in data set [2] amounted to 19%.

As for `O=C(Cc1ccc2ccccc2c1)NCC(c1ccc(C(F)(F)F)cc1)C(c1ccccc1)c1ccccc1` (stereo not drawn) [Compound 157], the “hPR % inh 10 μM” value in data set [2] worked out at 10%.

As for `Cc1c(CC(=O)NCC(c2ccc(C(F)(F)F)cc2)C(c2ccccc2)c2ccccc2)sc2ccc(Cl)cc12` (stereo not drawn) [Compound 158], the “hPR % inh 10 μM” value in data set [2] came out at 16%. For `CN(C)c1ccc(C=CC(=O)NCC(c2ccc(C(F)(F)F)cc2)C(c2ccccc2)c2ccccc2)cc1` (stereo not drawn) [Compound 159], the “hPR % inh 10 μM” value in data set [2] is given as 12%. On to `O=C(NCC(c1ccc(C(F)(F)F)cc1)C(c1ccccc1)c1ccccc1)c1cc(C(F)(F)F)cc(C(F)(F)F)c1` (stereo not drawn) [Compound 160], for which the “hPR % inh 10 μM” value in data set [2] was 10%. Same read-out and setting: as for `O=C(Cc1ccccc1Cl)NCC(c1ccc(I)cc1)C(c1ccccc1)c1ccccc1` (stereo not drawn) [Compound 161], the figure is 42%; as for `O=C(Cc1ccc(Cl)cc1)NCC(c1ccc(I)cc1)C(c1ccccc1)c1ccccc1` (stereo not drawn) [Compound 162], 30%; as for `O=C(Cc1ccc(Cl)c(Cl)c1)NCC(c1ccc(I)cc1)C(c1ccccc1)c1ccccc1` (stereo not drawn) [Compound 163], 44%. The same measure, in the same setting: as for `O=C(Cc1ccccc1F)NCC(c1ccc(I)cc1)C(c1ccccc1)c1ccccc1` (stereo not drawn) [Compound 164], the figure is 40%. In the case of `O=C(Cc1ccc(F)cc1)NCC(c1ccc(I)cc1)C(c1ccccc1)c1ccccc1` (stereo not drawn) [Compound 165], the “hPR % inh 10 μM” value in data set [2] was determined as 79%. In the case of `O=C(Cc1ccc(C(F)(F)F)cc1)NCC(c1ccc(I)cc1)C(c1ccccc1)c1ccccc1` (stereo not drawn) [Compound 166], in data set [2], the “hPR % inh 10 μM” value was 46%. Regarding `O=C(Cc1cc(C(F)(F)F)cc(C(F)(F)F)c1)NCC(c1ccc(I)cc1)C(c1ccccc1)c1ccccc1` (stereo not drawn) [Compound 167], the “hPR % inh 10 μM” value in data set [2] turned out to be 63%.

Take `COc1ccccc1CC(=O)NCC(c1ccc(I)cc1)C(c1ccccc1)c1ccccc1` (stereo not drawn) [Compound 168]: in data set [2], the “hPR % inh 10 μM” value is given as 32%. The same measure, in the same setting: the value for `COc1cccc(CC(=O)NCC(c2ccc(I)cc2)C(c2ccccc2)c2ccccc2)c1` (stereo not drawn) [Compound 169] was 45%; that for `COc1ccc(CC(=O)NCC(c2ccc(I)cc2)C(c2ccccc2)c2ccccc2)cc1` (stereo not drawn) [Compound 170] was 25%; that for `COc1cc(CC(=O)NCC(c2ccc(I)cc2)C(c2ccccc2)c2ccccc2)cc(OC)c1` (stereo not drawn) [Compound 171] was 25%. In the case of `O=C(NCC(c1ccc(I)cc1)C(c1ccccc1)c1ccccc1)c1ccccc1Cl` (stereo not drawn) [Compound 172], the “hPR % inh 10 μM” value in data set [2] is given as 32%. As to `O=C(NCC(c1ccc(I)cc1)C(c1ccccc1)c1ccccc1)c1ccc(Cl)cc1` (stereo not drawn) [Compound 173], the “hPR % inh 10 μM” value in data set [2] stood at 72%.

As to `O=C(NCC(c1ccc(I)cc1)C(c1ccccc1)c1ccccc1)c1ccc(Cl)c(Cl)c1` (stereo not drawn) [Compound 174], the “hPR % inh 10 μM” value in data set [2] was 50%. Consider `O=C(NCC(c1ccc(I)cc1)C(c1ccccc1)c1ccccc1)c1ccccc1F` (stereo not drawn) [Compound 175], for which, in data set [2], the “hPR % inh 10 μM” value is 65%.

Usually melting point stands for the temperature of the solid-liquid transition.
